Assay results taken from ChEMBL document CHEMBL5316324, “Discovery, Characterization, and Engineering of LvIC, an α4/4-Conotoxin That Selectively Blocks Rat α6/α3β4 Nicotinic Acetylcholine Receptors” (J Med Chem, 2023).
Numbered stars: 1 amine (or outer) side, 2 acyl side, 3 side chain; on linkers, the order of the positions; unused ones are H or OH. Bridge positions count the residues as written; N and C are the ends. Square brackets hold non-standard residues; d marks the D form. Side chains are listed from the residue outwards. Peptide text beside a SMILES is read from it. ξ: configuration not given here. ξPro(4ξ-NH2) = O=C(C1CC(N[*:3])CN1[*:1])[*:2]; ξpGlu = O=C1CCC(C(=O)O)N1

What was measured:
[1] = organism: Rattus norvegicus; experiment: Selectivity ratio of IC50 for rat alpha6/alpha3beta4 nAChR expressed in Stage V-VI Xenopus laevis oocytes in presence of acetylcholine to IC50 for rat alpha3beta4 nAChR expressed in Stage V-VI Xenopus laevis Oocytes in presence of acetylcholine by electrophysiological recording; format: cell-based
[2] = target: T1, Nicotinic acetylcholine receptor alpha6/alpha3/beta4 (Rattus norvegicus, UniProt P04757+P12392+P43143); experiment: Inhibition of rat alpha6/alpha3beta4 nAChR expressed in Xenopus Oocytes in presence of acetylcholine by Voltage-clamp recording; format: cell-based
[3] = target: T1, Nicotinic acetylcholine receptor alpha6/alpha3/beta4; experiment: (§1) Inhibition of rat alpha6/alpha3beta4 nAChR expressed in Stage V-VI Xenopus laevis Oocytes assessed as inhibition of acetylcholine-induced current in presence of acetylcholine by electrophysiological recording; format: cell-based, Oocyte
[4] = target: Neuronal acetylcholine receptor; alpha3/beta2 (Rattus norvegicus, UniProt P04757+P12390); experiment: Inhibition of rat alpha3/beta2 nAChR expressed in Stage V-VI Xenopus laevis Oocytes assessed as inhibition of acetylcholine-induced current in presence of acetylcholine by electrophysiological recording; format: cell-based, Oocyte
[5] = target: Neuronal acetylcholine receptor; alpha3/beta2 (Rattus norvegicus) (UniProt P04757+P12390); experiment: Inhibition of rat alpha3/beta2 nAChR expressed in Stage V-VI Xenopus laevis Oocytes assessed as inhibition of acetylcholine-induced current at 10 uM in presence of acetylcholine by electrophysiological recording relative to control; format: cell-based; details: Oocyte
[6] = target: Nicotinic acetylcholine receptor alpha1/beta1/epsilon/delta (Mus musculus) (UniProt P04756+P09690+P02716+P20782); experiment: Inhibition of mouse alpha1/beta1deltaepsilon nAChR expressed in Stage V-VI Xenopus laevis Oocytes assessed as inhibition of acetylcholine-induced current at 10 uM in presence of acetylcholine by electrophysiological recording relative to control; format: cell-based; details: Oocyte
[7] = target: Neuronal acetylcholine receptor subunit alpha-7 (Rattus norvegicus, UniProt Q05941); experiment: Inhibition of rat alpha7 nAChR expressed in Stage V-VI Xenopus laevis Oocytes assessed as inhibition of acetylcholine-induced current in presence of acetylcholine by electrophysiological recording; format: cell-based, Oocyte
[8] = target: Neuronal acetylcholine receptor; alpha2/beta2 (Rattus norvegicus, UniProt P12389+P12390); experiment: Inhibition of rat alpha2/beta2 nAChR expressed in Stage V-VI Xenopus laevis Oocytes assessed as inhibition of acetylcholine-induced current in presence of acetylcholine by electrophysiological recording; format: cell-based, Oocyte
[9] = target: Neuronal acetylcholine receptor; alpha4/beta4 (Rattus norvegicus, UniProt P09483+P12392); experiment: Inhibition of rat alpha4/beta4 nAChR expressed in Stage V-VI Xenopus laevis Oocytes assessed as inhibition of acetylcholine-induced current in presence of acetylcholine by electrophysiological recording; format: cell-based, Oocyte
[10] = target: Nicotinic acetylcholine receptor alpha6/alpha3/beta2/beta3 (Rattus norvegicus, UniProt P04757+P12390+P12391+P43143); experiment: Inhibition of rat alpha6/alpha3beta2beta3 nAChR expressed in Stage V-VI Xenopus laevis Oocytes assessed as inhibition of acetylcholine-induced current in presence of acetylcholine by electrophysiological recording; format: cell-based, Oocyte
[11] = target: Nicotinic acetylcholine receptor alpha9/alpha10 (Rattus norvegicus) (UniProt P43144+Q9JLB5); experiment: Inhibition of rat alpha9/alpha10 nAChR expressed in Stage V-VI Xenopus laevis Oocytes assessed as inhibition of acetylcholine-induced current at 10 uM in presence of acetylcholine by electrophysiological recording relative to control; format: cell-based; details: Oocyte
[12] = target: Neuronal acetylcholine receptor subunit alpha-7 (Rattus norvegicus) (UniProt Q05941); experiment: Inhibition of rat alpha7 nAChR expressed in Stage V-VI Xenopus laevis Oocytes assessed as inhibition of acetylcholine-induced current at 10 uM in presence of acetylcholine by electrophysiological recording relative to control; format: cell-based; details: Oocyte
[13] = target: Neuronal acetylcholine receptor; alpha2/beta2 (Rattus norvegicus) (UniProt P12389+P12390); experiment: Inhibition of rat alpha2/beta2 nAChR expressed in Stage V-VI Xenopus laevis Oocytes assessed as inhibition of acetylcholine-induced current at 10 uM in presence of acetylcholine by electrophysiological recording relative to control; format: cell-based; details: Oocyte
[14] = target: Nicotinic acetylcholine receptor alpha6/alpha3/beta2/beta3 (Rattus norvegicus) (UniProt P04757+P12390+P12391+P43143); experiment: Inhibition of rat alpha6/alpha3beta2beta3 nAChR expressed in Stage V-VI Xenopus laevis Oocytes assessed as inhibition of acetylcholine-induced current at 10 uM in presence of acetylcholine by electrophysiological recording relative to control; format: cell-based; details: Oocyte
[15] = target: Neuronal acetylcholine receptor; alpha4/beta2 (Rattus norvegicus) (UniProt P09483+P12390); experiment: Inhibition of rat alpha4/beta2 nAChR expressed in Stage V-VI Xenopus laevis Oocytes assessed as inhibition of acetylcholine-induced current at 10 uM in presence of acetylcholine by electrophysiological recording relative to control; format: cell-based; details: Oocyte
[16] = target: Neuronal acetylcholine receptor; alpha4/beta2 (Rattus norvegicus, UniProt P09483+P12390); experiment: Inhibition of rat alpha4/beta2 nAChR expressed in Stage V-VI Xenopus laevis Oocytes assessed as inhibition of acetylcholine-induced current in presence of acetylcholine by electrophysiological recording; format: cell-based, Oocyte
[17] = target: Neuronal acetylcholine receptor; alpha2/beta4 (Rattus norvegicus) (UniProt P12389+P12392); experiment: Inhibition of rat alpha2/beta4 nAChR expressed in Stage V-VI Xenopus laevis Oocytes assessed as inhibition of acetylcholine-induced current at 10 uM in presence of acetylcholine by electrophysiological recording relative to control; format: cell-based; details: Oocyte
[18] = target: Neuronal acetylcholine receptor; alpha2/beta4 (Rattus norvegicus, UniProt P12389+P12392); experiment: Inhibition of rat alpha2/beta4 nAChR expressed in Stage V-VI Xenopus laevis Oocytes assessed as inhibition of acetylcholine-induced current in presence of acetylcholine by electrophysiological recording; format: cell-based, Oocyte
[19] = target: Nicotinic acetylcholine receptor alpha1/beta1/epsilon/delta (Mus musculus, UniProt P02716+P04756+P09690+P20782); experiment: Inhibition of mouse alpha1/beta1deltaepsilon nAChR expressed in Stage V-VI Xenopus laevis Oocytes assessed as inhibition of acetylcholine-induced current in presence of acetylcholine by electrophysiological recording; format: cell-based, Oocyte
[20] = target: Neuronal acetylcholine receptor; alpha3/beta4 (Rattus norvegicus, UniProt P04757+P12392); experiment: Inhibition of rat alpha3/beta4 nAChR expressed in Stage V-VI Xenopus laevis Oocytes assessed as inhibition of acetylcholine-induced current in presence of acetylcholine by electrophysiological recording; format: cell-based, Oocyte
[21] = target: Neuronal acetylcholine receptor; alpha4/beta4 (Rattus norvegicus) (UniProt P09483+P12392); experiment: Inhibition of rat alpha4/beta4 nAChR expressed in Stage V-VI Xenopus laevis Oocytes assessed as inhibition of acetylcholine-induced current at 10 uM in presence of acetylcholine by electrophysiological recording relative to control; format: cell-based; details: Oocyte
[22] = target: Nicotinic acetylcholine receptor alpha9/alpha10 (Rattus norvegicus, UniProt P43144+Q9JLB5); experiment: Inhibition of rat alpha9/alpha10 nAChR expressed in Stage V-VI Xenopus laevis Oocytes assessed as inhibition of acetylcholine-induced current in presence of acetylcholine by electrophysiological recording; format: cell-based, Oocyte
[23] = target: Neuronal acetylcholine receptor; alpha3/beta4 (Rattus norvegicus) (UniProt P04757+P12392); experiment: Inhibition of rat alpha3/beta4 nAChR expressed in Stage V-VI Xenopus laevis Oocytes assessed as inhibition of acetylcholine-induced current at 10 uM in presence of acetylcholine by electrophysiological recording relative to control; format: cell-based; details: Oocyte
[24] = target: Nicotinic acetylcholine receptor alpha6/alpha3/beta4 (Rattus norvegicus) (UniProt P04757+P12392+P43143); experiment: as §1, with “current by measuring recovery time at 10 uM preincubated with compound for 5 mins followed by washout” for “current”; format: cell-based; details: Oocyte

T1 sequence (P04757 whole entry): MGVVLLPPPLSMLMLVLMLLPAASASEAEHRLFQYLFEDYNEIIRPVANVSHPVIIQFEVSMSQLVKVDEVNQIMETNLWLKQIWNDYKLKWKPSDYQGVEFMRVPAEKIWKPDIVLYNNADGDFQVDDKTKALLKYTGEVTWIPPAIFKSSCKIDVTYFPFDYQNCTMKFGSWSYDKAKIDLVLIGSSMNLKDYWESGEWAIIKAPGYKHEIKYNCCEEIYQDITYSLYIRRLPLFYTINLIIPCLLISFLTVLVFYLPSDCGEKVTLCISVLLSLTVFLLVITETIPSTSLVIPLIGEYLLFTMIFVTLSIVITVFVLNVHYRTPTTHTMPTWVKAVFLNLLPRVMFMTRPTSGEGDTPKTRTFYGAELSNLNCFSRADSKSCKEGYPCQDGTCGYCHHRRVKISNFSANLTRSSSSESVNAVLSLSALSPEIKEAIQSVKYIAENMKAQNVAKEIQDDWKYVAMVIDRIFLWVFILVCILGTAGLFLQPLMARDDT
T1 sequence (P12392 whole entry): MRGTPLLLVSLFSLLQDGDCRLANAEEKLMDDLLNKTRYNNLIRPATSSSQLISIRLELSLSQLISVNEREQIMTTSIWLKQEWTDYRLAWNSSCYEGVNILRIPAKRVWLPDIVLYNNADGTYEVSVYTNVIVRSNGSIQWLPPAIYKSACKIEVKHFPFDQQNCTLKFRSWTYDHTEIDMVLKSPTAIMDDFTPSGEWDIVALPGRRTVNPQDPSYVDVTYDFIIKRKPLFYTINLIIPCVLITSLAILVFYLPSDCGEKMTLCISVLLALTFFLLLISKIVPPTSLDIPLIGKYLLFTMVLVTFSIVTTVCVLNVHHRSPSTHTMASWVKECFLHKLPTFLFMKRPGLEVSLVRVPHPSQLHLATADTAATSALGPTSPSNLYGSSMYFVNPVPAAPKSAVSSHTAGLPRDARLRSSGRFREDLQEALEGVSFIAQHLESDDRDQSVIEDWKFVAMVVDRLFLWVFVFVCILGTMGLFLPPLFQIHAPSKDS
T1 sequence (P43143 whole entry): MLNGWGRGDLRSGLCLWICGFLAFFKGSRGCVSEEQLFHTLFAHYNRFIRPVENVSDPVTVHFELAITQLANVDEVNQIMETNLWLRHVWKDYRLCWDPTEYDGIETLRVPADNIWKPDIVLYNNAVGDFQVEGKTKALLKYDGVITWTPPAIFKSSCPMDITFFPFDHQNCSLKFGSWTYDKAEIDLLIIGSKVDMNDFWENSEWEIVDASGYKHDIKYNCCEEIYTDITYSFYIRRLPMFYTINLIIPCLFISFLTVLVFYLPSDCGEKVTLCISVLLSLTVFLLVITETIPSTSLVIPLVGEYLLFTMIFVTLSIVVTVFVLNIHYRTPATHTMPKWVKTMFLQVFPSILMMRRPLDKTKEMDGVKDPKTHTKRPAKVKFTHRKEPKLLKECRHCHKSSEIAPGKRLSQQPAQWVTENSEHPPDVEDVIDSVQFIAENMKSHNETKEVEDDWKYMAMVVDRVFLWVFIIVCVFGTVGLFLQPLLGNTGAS
Chain of Neuronal acetylcholine receptor; alpha2/beta4 (P12389 whole entry): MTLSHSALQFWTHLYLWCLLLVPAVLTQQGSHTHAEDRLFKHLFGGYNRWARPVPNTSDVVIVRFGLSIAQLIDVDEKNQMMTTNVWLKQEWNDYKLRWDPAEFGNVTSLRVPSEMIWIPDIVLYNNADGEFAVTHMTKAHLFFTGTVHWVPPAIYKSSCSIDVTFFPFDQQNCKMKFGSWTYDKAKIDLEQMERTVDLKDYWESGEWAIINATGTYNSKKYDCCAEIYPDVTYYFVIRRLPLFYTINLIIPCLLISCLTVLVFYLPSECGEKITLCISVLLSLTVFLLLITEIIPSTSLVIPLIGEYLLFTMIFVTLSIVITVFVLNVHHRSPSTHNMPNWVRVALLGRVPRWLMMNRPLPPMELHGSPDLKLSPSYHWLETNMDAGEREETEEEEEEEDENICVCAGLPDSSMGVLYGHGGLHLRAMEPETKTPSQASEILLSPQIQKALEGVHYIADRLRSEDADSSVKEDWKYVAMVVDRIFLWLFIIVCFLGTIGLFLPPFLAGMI
Chain of Neuronal acetylcholine receptor; alpha2/beta4 (P12392 whole entry): as the sequence (P12392 whole entry) above
Chain of Neuronal acetylcholine receptor; alpha2/beta2 (P12389 whole entry): as the sequence (P12389 whole entry) above
Chain of Neuronal acetylcholine receptor; alpha2/beta2 (P12390 whole entry): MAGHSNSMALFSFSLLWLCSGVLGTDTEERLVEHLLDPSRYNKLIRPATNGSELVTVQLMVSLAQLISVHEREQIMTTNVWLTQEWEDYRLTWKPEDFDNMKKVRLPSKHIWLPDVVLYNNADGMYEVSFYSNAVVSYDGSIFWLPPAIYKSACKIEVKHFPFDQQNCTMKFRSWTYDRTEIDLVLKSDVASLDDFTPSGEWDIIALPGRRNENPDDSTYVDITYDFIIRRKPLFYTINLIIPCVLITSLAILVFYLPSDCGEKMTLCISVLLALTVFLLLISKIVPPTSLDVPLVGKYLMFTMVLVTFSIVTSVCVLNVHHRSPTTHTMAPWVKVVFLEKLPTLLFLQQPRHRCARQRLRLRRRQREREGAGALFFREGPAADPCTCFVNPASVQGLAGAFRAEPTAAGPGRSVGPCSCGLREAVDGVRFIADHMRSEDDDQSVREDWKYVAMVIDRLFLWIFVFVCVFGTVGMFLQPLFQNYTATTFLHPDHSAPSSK
Chain of Neuronal acetylcholine receptor subunit alpha-7 (Rattus norvegicus) (Q05941 whole entry): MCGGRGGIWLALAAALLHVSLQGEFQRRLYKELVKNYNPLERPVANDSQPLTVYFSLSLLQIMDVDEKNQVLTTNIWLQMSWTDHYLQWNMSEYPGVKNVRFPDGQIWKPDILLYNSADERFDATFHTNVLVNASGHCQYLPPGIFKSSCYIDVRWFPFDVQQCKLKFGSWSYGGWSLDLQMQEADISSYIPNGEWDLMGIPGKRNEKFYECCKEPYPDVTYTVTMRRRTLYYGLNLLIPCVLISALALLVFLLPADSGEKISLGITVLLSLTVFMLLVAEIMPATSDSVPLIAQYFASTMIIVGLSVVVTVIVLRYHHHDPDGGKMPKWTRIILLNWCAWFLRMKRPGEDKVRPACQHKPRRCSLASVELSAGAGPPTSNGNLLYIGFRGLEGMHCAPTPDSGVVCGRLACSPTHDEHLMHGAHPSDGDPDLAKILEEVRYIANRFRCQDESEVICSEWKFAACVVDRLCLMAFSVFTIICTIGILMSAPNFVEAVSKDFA
Chain of Neuronal acetylcholine receptor subunit alpha-7 (Q05941 whole entry): as above

Compound | IC50 [3] [µM] | IC50 [4] [µM] | inhibition [5] [%] | inhibition [6] [%] | IC50 [7] [µM] | IC50 [8] [µM] | IC50 [9] [µM] | IC50 [10] [µM] | inhibition [11] [%] | inhibition [12] [%] | inhibition [13] [%] | inhibition [14] [%] | inhibition [15] [%] | IC50 [16] [µM] | inhibition [17] [%] | IC50 [18] [µM] | IC50 [19] [µM] | IC50 [20] [µM] | inhibition [21] [%] | TIME [24] [h] | other results
CC(C)C[C@H](NC(=O)[C@@H](NC(=O)[C@H](C)NC(=O)[C@H](CS)NC(=O)[C@@H]1CCCN1C(=O)[C@@H]1CCC(=O)N1C(=O)[C@H](C)NC(=O)[C@H](CO)NC(=O)[C@H](CS)NC(=O)[C@H](CS)NC(=O)CN)C(C)C)C(=O)N[C@@H](Cc1ccc(O)cc1)C(=O)N[C@@H](CS)C(N)=O |  |  |  |  |  |  |  |  |  |  |  |  |  |  |  |  |  |  |  |  | Ratio [1]: 20; IC50 [2]: 0.0581 µM
CC(C)[C@@H]1NC(=O)[C@@H]2CCCN2C(=O)[C@H](CC(N)=O)NC(=O)[C@H](C)NC(=O)[C@@H]2CSSC[C@@H](C(=O)N[C@@H](CCC(N)=O)C(=O)O)NC(=O)[C@H](Cc3cnc[nH]3)NC(=O)[C@H](CCCCN)NC(=O)CNC(=O)[C@H](CC(N)=O)NC(=O)[C@H](CSSC[C@H](NC(=O)[C@@H](N)CC(=O)O)C(=O)N2)NC1=O (H-DCCANPVCNGKHCQ-OH; disulfide 2-8, 3-13) | 3.3 | > 10 | < 50 | < 50 | > 10 | > 10 | > 10 | > 10 | < 50 | < 50 | < 50 | < 50 | < 50 | > 10 | < 50 | > 10 | > 10 | > 10 | < 50 |  | IC50 [22]: > 10 µM; inhibition [23]: < 50%
CC(C)[C@H](NC(=O)[C@@H]1CCCN1C(=O)[C@H](CC(N)=O)NC(=O)[C@H](C)NC(=O)[C@H](CS)NC(=O)[C@H](CS)NC(=O)CN)C(=O)N[C@@H](CS)C(=O)N[C@@H](CC(N)=O)C(=O)NCC(=O)N[C@@H](C)C(=O)N[C@@H](Cc1cnc[nH]1)C(=O)N[C@@H](CS)C(N)=O (H-GCCANPVCNGAHC-NH2) | 0.0723 |  |  |  |  |  |  |  |  |  |  |  |  |  |  |  |  |  |  | 0.217 | 
CC(C)[C@H](NC(=O)[C@@H]1CCCN1C(=O)[C@H](CC(N)=O)NC(=O)[C@H](C)NC(=O)[C@H](CS)NC(=O)[C@H](CS)NC(=O)[C@@H](N)CC(=O)O)C(=O)N[C@@H](CS)C(=O)N[C@@H](CC(N)=O)C(=O)NCC(=O)N[C@@H](CCCCN)C(=O)N[C@@H](Cc1cnc[nH]1)C(=O)N[C@@H](CS)C(N)=O (H-DCCANPVCNGKHC-NH2) | 0.31 | > 10 | < 50 | < 50 | > 10 | > 10 | > 10 | > 10 | < 50 | < 50 | < 50 | < 50 | < 50 | > 10 | < 50 | > 10 | > 10 | > 10 | < 50 |  | IC50 [22]: > 10 µM; inhibition [23]: < 50%
CC(C)[C@H](NC(=O)[C@H](CS)NC(=O)[C@H](C)NC(=O)[C@@H]1CCCN1C(=O)[C@H](CC(N)=O)NC(=O)[C@H](Cc1c[nH]c2ccccc12)NC(=O)[C@H](CS)NC(=O)[C@H](CS)NC(=O)CNC(=O)C1CC(NC(=O)[C@H](CO)NC(=O)C2CCC(=O)N2)CN1)C(=O)N[C@@H](CCCCN)C(=O)N[C@@H](CC(N)=O)C(=O)N[C@@H](CCCNC(=N)N)C(=O)N[C@@H](CS)C(N)=O (stereo not given in full) (H-[ξPro(4ξ-NH2)]([Ser-ξpGlu])GCCWNPACVKNRC-NH2) | 0.094 |  |  |  |  |  |  |  |  |  |  |  |  |  |  |  |  |  |  | 0.05 | 
CC(C)[C@H](NC(=O)[C@H](Cc1cnc[nH]1)NC(=O)[C@H](CCCCN)NC(=O)[C@H](CS)NC(=O)[C@@H]1CCCN1C(=O)[C@@H]1CCCN1C(=O)[C@H](CC(N)=O)NC(=O)[C@H](C)NC(=O)[C@H](CS)NC(=O)[C@H](CS)NC(=O)C1CCC(=O)N1)C(=O)N[C@@H](CC(N)=O)C(=O)N[C@@H](CS)C(=O)N[C@@H](CCCNC(=N)N)C(N)=O (stereo not given in full) ([ξpGlu]CCANPPCKHVNCR-NH2) | 0.0818 |  |  |  |  |  |  |  |  |  |  |  |  |  |  |  |  |  |  | 0.15 | 
